Counter-ions that a name gives are not always drawn. Like-named read-outs stand apart in the source and are kept apart here.
Key:
[1] = molecular target: T1, human norepinephrine transporter (Homo sapiens, UniProt P23975); assay: Inhibitory action on human norepinephrine transporter ([3H]-norepinephrine uptake in CHO cells); type: cell-based; conditions: CHO, relative to inhibitory activity of 10 μM DMI as 100%
T1 construct: expressed in transfected cells
How it was run: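 Stably transfected CHO-K1 cells plated overnight, then given test compound and [3H]-norepinephrine (20 nM final, from 200 nM) in HEPES-buffered saline with 0.5% BSA for 45 min. After PBS washes, retained radioactivity counted by scintillation. Inhibition at 10 μM or 1 μM compound expressed relative to 10 μM DMI as 100%.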

SD female rats = assay: Measurement of urethral resistance increasing effect (leak point pressure, oral administration); type: in vivo, rat
Method: The urethral resistance increasing effect in rat was measured by a modified method of Matsumoto et al. (WO2009/063992) as follows. That is, SD female rats (CLEA Japan, Inc.) were anesthetized with isoflurane (1.0%; Abbott), and the spinal cord was transected at Th8-9 to avoid the voiding reflex. After laparotomy, an intravesical pressure measurement catheter and a saline infusion catheter (PE-100; Clay Adams) were inserted into the bladder. Thereafter, the abdomen of the rat was closed with aronalpha A “Sankyo” (Daiichi Sankyo). The rat with an inserted catheter was placed in a Bollman cage (KN-326 Bollman cage TYPE III; Natsume). The intravesical pressure measurement catheter was connected to a computer via a pressure transducer (DX-100; Nihon Koden), an amplifier (RPM-6008M; Nihon Koden/303638; SAN-EI), and a multi-channel data analyzer (MP150/MP100; Biopack), and changes in the intravesical pressure were recorded on a hard disc at a frequency of 100 samples/sec. The saline infusion catheter was connected to a 50 mL syringe (Terumo) filled with saline colored with Evans Blue (Wako). The saline was infused into the bladder from the 50 mL syringe filled with saline at a rate of 0.1 mL/sec by using an infusion pump (Kds100; KD Scientific). When the saline leaked from the urethral orifice, infusion was discontinued, and the saline in the bladder was released. The maximum pressure observed during infusion of saline into the bladder and leakage thereof was taken as an LPP (Leak point pressure) value. The measurement was repeated until the LPP value was stabilized, and an average of continuous three stable LPP values was taken as the result. In addition, the measurement of drug effect was started 1 hr after the animal was placed in the Bollman cage. The LPP value (Pre value) was measured, a drug was orally administered, and the measurement of LPP value (Post value) was again started 15 min, 30 min, 1 hr, 2 hr and 4 hr after administration. The urethral resistance increasing effect by the drug was shown by the difference between the LPP value (Post value) and LPP value (Pre value). The drug was orally administered at 2.0 mL/kg, using 0.5% methylcellulose as a vehicle. For detection of a significant difference in the urethral resistance increasing effect by the drug as compared to the vehicle, the following method was used. For comparison of 3 or more groups, the Williams' test was used for a parametric test, and the Shirley-Williams' test was used for a non-parametric test. For comparison of 2 groups, the Student's t-test was used for a parametric test, and the […] was used for a non-parametric test.

[2] = read-out: inhibitory rate (%), compound 1 μM
[3] = compound 1 μM, read-out: inhibitory rate (%)

T1 sequence (P23975 whole entry): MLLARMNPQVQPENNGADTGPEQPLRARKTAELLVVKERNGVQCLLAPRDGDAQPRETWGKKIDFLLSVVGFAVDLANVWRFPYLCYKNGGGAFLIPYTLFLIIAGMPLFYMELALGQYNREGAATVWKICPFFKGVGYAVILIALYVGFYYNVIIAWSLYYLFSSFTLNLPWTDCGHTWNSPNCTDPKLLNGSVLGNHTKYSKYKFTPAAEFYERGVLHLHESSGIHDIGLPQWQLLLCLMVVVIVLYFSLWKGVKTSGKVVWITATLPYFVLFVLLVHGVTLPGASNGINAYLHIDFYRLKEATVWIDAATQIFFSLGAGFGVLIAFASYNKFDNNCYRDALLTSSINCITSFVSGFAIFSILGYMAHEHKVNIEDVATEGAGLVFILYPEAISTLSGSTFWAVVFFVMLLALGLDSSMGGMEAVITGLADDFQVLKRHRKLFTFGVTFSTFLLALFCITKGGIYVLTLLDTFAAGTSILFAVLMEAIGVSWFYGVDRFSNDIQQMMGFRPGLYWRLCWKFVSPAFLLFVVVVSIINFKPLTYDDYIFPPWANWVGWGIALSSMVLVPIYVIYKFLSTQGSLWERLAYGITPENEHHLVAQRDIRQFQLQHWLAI

Row | Compound | inhibition at 1 µM [1, 2] [%] | inhibition at 10 µM ([1]; read-out: inhibitory rate (%), compound 10 μM) [%] | urethral resistance increasing effect (cmH2O) (SD female rats; 1.0 mg/kg oral, 15 min later) | urethral resistance increasing effect (cmH2O) (SD female rats; 1.0 mg/kg oral, 30 min later) | urethral resistance increasing effect (cmH2O) (SD female rats; 3.0 mg/kg oral, 15 min later) | urethral resistance increasing effect (cmH2O) (SD female rats; 3.0 mg/kg oral, 30 min later) | urethral resistance increasing effect (cmH2O) (SD female rats; 10.0 mg/kg oral, 15 min later) | urethral resistance increasing effect (cmH2O) (SD female rats; 10.0 mg/kg oral, 30 min later) | inhibition at 1 µM [1, 3] [%] | urethral resistance increasing effect (cmH2O) (SD female rats; 0.3 mg/kg oral, 15 min later) | urethral resistance increasing effect (cmH2O) (SD female rats; 0.3 mg/kg oral, 30 min later) | urethral resistance increasing effect (cmH2O) (SD female rats; 30.0 mg/kg oral, 15 min later) | urethral resistance increasing effect (cmH2O) (SD female rats; 30.0 mg/kg oral, 30 min later)
1 | CC(=O)NC[C@H]1CNCCO[C@@H]1c1ccc(Cl)c(Cl)c1 (racemic) [Example 6, N-{[(6RS,7SR)-7-(3,4-dichlorophenyl)-1,4-oxazepan-6-yl]methyl}acetamide monohydrochloride] | 95 | 97 |  |  |  |  |  |  |  |  |  |  | 
2 | O=c1[nH]c(-c2cccn(C[C@@H]3CNCCO[C@H]3c3ccc(Cl)c(Cl)c3)c2=O)no1 [Example 31, 1-{[(6S,7R)-7-(3,4-dichlorophenyl)-1,4-oxazepan-6-yl]methyl}-3-(5-oxo-4,5-dihydro-1,2,4-oxadiazol-3-yl)pyridin-2(1H)-one monohydrochloride] |  |  | 6.7 ± 2.5 | 9.0 ± 3.8 | 13.2 ± 3.8 | 14.5 ± 3.6 | 16.2 ± 2.1 | 14.3 ± 2.2 | 108 |  |  |  | 
3 | CC(=O)NC[C@@H]1CNCCO[C@H]1c1ccc(Cl)c(Cl)c1 [Example 32, N-{[(6S,7R)-7-(3,4-dichlorophenyl)-1,4-oxazepan-6-yl]methyl}acetamide 0.5 fumarate] | 93 |  |  |  |  |  | 18.3 ± 2.1 | 17.1 ± 3.2 |  |  |  |  | 
4 | COCC(=O)NC[C@@H]1CNCCO[C@H]1c1ccc(Cl)c(Cl)c1 [Example 33, N-{[(6S,7R)-7-(3,4-dichlorophenyl)-1,4-oxazepan-6-yl]methyl}-2-methoxyacetamide monohydrochloride] |  |  |  |  |  |  | 21.8 ± 3.3 | 20.9 ± 3.4 | 100 |  |  |  | 
5 | CC(=O)N[C@@H]1CNCCO[C@H]1c1ccc(Cl)c(Cl)c1 [Example 36, N-[(6R,7S)-7-(3,4-dichlorophenyl)-1,4-oxazepan-6-yl]acetamide monofumarate] | 101 |  |  |  |  |  | 15.0 ± 1.8 | 14.3 ± 1.8 |  |  |  |  | 
6 | NS(=O)(=O)N[C@@H]1CNCCO[C@H]1c1ccc(Cl)c(Cl)c1 [Example 37, N-[(6R,7S)-7-(3,4-dichlorophenyl)-1,4-oxazepan-6-yl]sulfamide monohydrochloride] |  |  |  |  | 8.5 ± 1.4 | 7.6 ± 1.6 | 16.3 ± 1.2 | 17.2 ± 1.9 | 102 |  |  |  | 
7 | COCC(=O)NC[C@@H]1CNCCO[C@H]1c1ccc(Cl)c(F)c1 [Example 38, N-{[(6S,7R)-7-(4-chloro-3-fluorophenyl)-1,4-oxazepan-6-yl]methyl}-2-methoxyacetamide monohydrochloride] |  |  | 12.9 ± 3.3 | 9.3 ± 1.6 | 18.0 ± 2.5 | 17.4 ± 2.4 | 21.6 ± 2.9 | 21.3 ± 3.3 | 102 | 4.2 ± 1.7 | 5.1 ± 1.7 |  | 
8 | [2H]C([2H])([2H])OCC(=O)NC[C@@H]1CNCCO[C@H]1c1ccc(Cl)c(F)c1 [Example 39, N-{[(6S,7R)-7-(4-chloro-3-fluorophenyl)-1,4-oxazepan-6-yl]methyl}-2-[(^2H3)methyloxy]acetamide monohydrochloride] |  |  | 12.3 ± 2.2 | 8.7 ± 2.6 | 15.8 ± 1.7 | 14.1 ± 1.5 | 17.9 ± 1.8 | 17.1 ± 2.3 | 102 |  |  |  | 
9 | CCOCC(=O)NC[C@@H]1CNCCO[C@H]1c1ccc(Cl)c(F)c1 [Example 40, N-{[(6S,7R)-7-(4-chloro-3-fluorophenyl)-1,4-oxazepan-6-yl]methyl}-2-ethoxyacetamide monohydrochloride] |  |  | 8.5 ± 1.9 | 8.6 ± 2.6 | 11.4 ± 1.9 | 12.8 ± 1.6 | 16.6 ± 2.0 | 17.2 ± 2.2 | 104 |  |  |  | 
10 | CC(C)OCC(=O)NC[C@@H]1CNCCO[C@H]1c1ccc(Cl)c(F)c1 [Example 41, N-{[(6S,7R)-7-(4-chloro-3-fluorophenyl)-1,4-oxazepan-6-yl]methyl}-2-(1-methylethoxy)acetamide monohydrochloride] |  |  |  |  | 9.8 ± 3.8 | 9.6 ± 2.3 | 17.8 ± 1.6 | 16.1 ± 1.5 | 101 |  |  |  | 
11 | O=c1[nH]c(-c2cccn(C[C@@H]3CNCCO[C@H]3c3ccc(Cl)c(F)c3)c2=O)no1 [Example 43, 1-{[(6S,7R)-7-(4-chloro-3-fluorophenyl)-1,4-oxazepan-6-yl]methyl}-3-(5-oxo-4,5-dihydro-1,2,4-oxadiazol-3-yl)pyridin-2(1H)-one monohydrochloride] | 102 |  |  |  | 8.4 ± 3.0 | 11.8 ± 2.8 | 13.9 ± 2.1 | 14.8 ± 0.9 |  |  |  |  | 
12 | O=C(O)c1cccn(C[C@@H]2CNCCO[C@H]2c2ccc(Cl)c(F)c2)c1=O [Example 44, 1-{[(6S,7R)-7-(4-chloro-3-fluorophenyl)-1,4-oxazepan-6-yl]methyl}-2-oxo-1,2-dihydropyridine-3-carboxylic acid monohydrochloride] |  |  | 8.6 ± 2.6 | 9.8 ± 2.6 | 15.5 ± 3.7 | 13.7 ± 3.3 | 18.8 ± 1.5 | 16.4 ± 1.5 | 102 | 0.1 ± 2.5 | 2.2 ± 2.6 |  | 
13 | OC[C@H](O)[C@@H]1OCCNC[C@H]1c1ccc(Cl)c(Cl)c1 [Example 45, (1S)-1-[(6R,7R)-6-(3,4-dichlorophenyl)-1,4-oxazepan-7-yl]ethane-1,2-diol monohydrochloride] |  |  | 10.0 ± 2.6 | 13.4 ± 1.2 | 16.9 ± 1.4 | 17.5 ± 2.8 | 21.0 ± 2.0 | 22.1 ± 2.0 | 105 | 6.4 ± 1.3 | 9.3 ± 3.3 |  | 
14 | O=c1[nH]c(-c2cccnc2O[C@@H]2CNCCO[C@H]2c2ccc(Cl)c(F)c2)no1 [Example 556, 3-(2-{[(6R,7S)-7-(4-chloro-3-fluorophenyl)-1,4-oxazepan-6-yl]oxy}pyridin-3-yl)-1,2,4-oxadiazol-5(4H)-one monohydrochloride] |  |  |  |  | 6.0 ± 2.0 | 5.0 ± 2.9 | 13.4 ± 1.7 | 10.6 ± 1.8 | 101 |  |  | 17.8 ± 3.4 | 17.5 ± 2.3
